The text below walks through data of ChEMBL document CHEMBL3779890, “Novel prodrugs with a spontaneous cleavable guanidine moiety” (Bioorg Med Chem Lett, 2016).

Values after ≈ are worked out from the molar mass of the structure shown.

Data set [1] is described as follows: Solubility of the compound in water at room temperature after 15 mins by HPLC analysis. The format is physicochemical.
Data set [2] is described as follows: Prodrug conversion in PBS assessed as half life for 50% release of Quinine in pH 7.4 at 37 degC after 1 hr by ESI-mass spectrometry. The format is ADME. As to conditions: buffer, pH 7.4, 1 h.
Data set [3] in a line: Stability of the compound in methanol-CH3CN at 4 degC after 1 month by HPLC analysis. It is filed as physicochemical. As to conditions: 730.5 h.
A short description of data set [4]: Prodrug conversion in PBS assessed as half life for 50% release of Phenytoin in pH 7.4 at 37 degC after 1 hr by ESI-mass spectrometry. To be noted: buffer, pH 7.4, 1 h. The format is ADME.
The nature of data set [5]: Prodrug conversion in PBS assessed as half life for 50% release of Sulfathiazole in pH 7.4 at 37 degC after 1 hr by ESI-mass spectrometry. It is filed as ADME. As to conditions: buffer, pH 7.4, 1 h.
Data set [6] in a line: Prodrug conversion in PBS assessed as half life for 50% release of Quinine in pH 7.4 at 37 degC by ESI-mass spectrometry. It is filed as ADME. To be noted: buffer, TDE = time-dependent effect.
Data set [7] can be described thus: Prodrug conversion in PBS assessed as half life for 50% release of 2-Aminobenzimidazole in pH 7.4 at 37 degC after 1 hr by ESI-mass spectrometry. As to conditions: buffer, pH 7.4, 1 h. The format is ADME.
A short description of data set [8]: Prodrug conversion in PBS assessed as half life for 50% release of ritonavir in pH 7.4 at 37 degC after 1 hr by ESI-mass spectrometry. The format is ADME. To be noted: buffer, pH 7.4, 1 h.

By solubility is commonly meant how much of the substance goes into solution per volume. The compound `C=C[C@@H]1CN2CC[C@H]1C[C@H]2[C@H](OC(=O)CCNC(=N)N)c1ccnc2ccc(OC)cc12.O=C(O)C(F)(F)F` registered a solubility at 0.25 h in data set [1] of more than 10000 µg/mL. In addition, in data set [2], the t1/2 was 1.1 min. The Stability entry in data set [3] is on record as “Stable”.

As for `N=C(N)NCC(=O)N1C(=O)NC(c2ccccc2)(c2ccccc2)C1=O.O=C(O)C(F)(F)F`, the concentration in solution in data set [1] (solubility at 0.25 h) came to 10200 µg/mL. In data set [4], the t1/2 amounted to 13 min. For the same compound, the Stability result in data set [3] is recorded as “Stable”.

In the case of `C=C[C@@H]1CN2CC[C@H]1C[C@H]2[C@H](OC(=O)CNC(=N)N)c1ccnc2ccc(OC)cc12.O=C(O)C(F)(F)F`, the t1/2 in data set [2] is recorded as less than 1 min.

As for `C[C@H](NC(=N)N)C(=O)Nc1ccc(S(=O)(=O)Nc2nccs2)cc1.O=C(O)C(F)(F)F`, the concentration in solution in data set [1] (solubility at 0.25 h) was 7100 µg/mL. Also, in data set [5], the t1/2 came to 40 min. Besides, in data set [3], the Stability entry is recorded as “Stable”.

As to `Nc1ccc(S(=O)(=O)Nc2nccs2)cc1.O=C(O)C(F)(F)F`, the concentration in solution in data set [1] (solubility at 0.25 h) came to 1.4 µg/mL.

On to `CN(CC(=O)N1C(=O)NC(c2ccccc2)(c2ccccc2)C1=O)C(=N)N.O=C(O)C(F)(F)F`, for which the t1/2 in data set [4] is listed as 0.78 min.

For the compound `C=C[C@@H]1CN2CC[C@H]1C[C@H]2[C@H](OC(=O)CCCN)c1ccnc2ccc(OC)cc12.O=C(O)C(F)(F)F`, the t1/2 in data set [2] is 102 min. Also, in data set [6], the Drug metabolism entry is on record as “tde”.

For the compound `N=C(N)NCC(=O)Nc1nc2ccccc2[nH]1.O=C(O)C(F)(F)F`, the t1/2 in data set [7] stood at 38 min.

With `C[C@H](NC(=N)N)C(=O)N1C(=O)NC(c2ccccc2)(c2ccccc2)C1=O.O=C(O)C(F)(F)F`, the t1/2 in data set [4] is reported as 1.1 min.

Compound `O=C1NC(=O)C(c2ccccc2)(c2ccccc2)N1` [PHENYTOIN] yielded a solubility at 0.25 h in data set [1] of 6.3 µg/mL (≈ 25 µM).

Turning to `CC(C)c1nc(CN(C)C(=O)N[C@H](C(=O)N[C@@H](Cc2ccccc2)C[C@H](O)[C@H](Cc2ccccc2)NC(=O)OCc2cncs2)C(C)C)cs1` [RITONAVIR], the t1/2 in data set [8] was found to be 42 h.
